23 compounds from PubChem BioAssay (NCI) can be followed below.

What all share (experiment): NCI anticancer screen, dose series, 48 h
For test [1], the system named is SK-MEL-5 melanoma.
The subject of test [2] is T-47D breast.
Test [3] deals with MOLT-4 leukemia.
Test [4] deals with MDA-N.
The test system of test [5] is COLO 205 colon.
The subject of test [6] is SF-295 CNS.
Test [7] has as its system HL-60(TB) leukemia.
Test [8] relates to BT-549 breast.
Test [9] concerns HT29 colon.
Test [10] has as its system KM12 colon.
In test [11] the test system is U251 CNS.
For test [12], the system named is M14 melanoma.
Test [13] has as its system K-562 leukemia.

Molecules are shown by their SMILES.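 Following 48 hours of exposure in 96-well plates, responses at five concentrations were used to interpolate endpoints linearly. GI50 is the concentration that inhibits growth by half. TGI: concentration producing complete growth inhibition.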

Consider `CCOc1ccccc1N=NC1C(=O)N(C(=O)CC(=O)Nc2ccccc2Cl)N=C1C` (centres undefined), for which the TGI in test [1], in test [2], in [3], in test [4], in test [5] and in [6] was greater than 100 µM in each case. Besides, the TGI in test [7], in test [8], in test [9], in test [10], in test [11] and in [12] was greater than 100 µM throughout.
Turning to `CCOC(=O)c1c2ccccc2n2c(=O)n(C)nnc12`, the TGI in [1], in [2], in [4], in test [5], in test [6] and in [7] was greater than 100 µM each time. Moreover, the TGI in [8], in test [10], in test [11], in test [12] and in test [13] was greater than 100 µM each time.
For the compound `O=C(CN1CCOCC1)NC1=Nc2ncccc2C(=O)NN1`, the TGI in test [1], in [2], in [3], in [4], in test [6] and in test [7] was greater than 10 µM each time. The TGI in test [8], in test [9], in [10], in [11], in test [12] and in test [13] was greater than 10 µM each time.
Take `Cc1nc(SCC(=O)Nc2ccccc2)c2sc(=S)n(-c3ccccc3)c2n1`: the TGI in test [1], in [2], in [3], in test [4], in test [5] and in test [6] was greater than 10 µM each time. The TGI in [7], in test [8], in test [9], in test [10], in test [11] and in test [12] was greater than 10 µM in each case.
`C=C(Cl)C(Br)(CCl)CCC(Cl)C(C)C` (centres undefined) (tested in a mixture with another compound): the TGI stood at 3.9 µM in [1]; 48 µM in [3]; 3.45 µM in [4]; 5 µM in [5]; 19.6 µM in [6]; 3.19 µM in test [8]. The TGI came out at 2.75 µM in test [9]; 3.55 µM in [10]; 3.14 µM in test [11]; 3.87 µM in test [12]; 24.2 µM in [13].
Take `Cn1cc(C=C(C#N)C#N)c(=O)n(C)c1=O`: the TGI in test [1], in test [2], in test [3], in test [4], in [5] and in test [6] was greater than 100 µM in each case. Besides, the TGI in [8], in [9], in [10], in test [11] and in test [12] was greater than 100 µM each time.
As for `CCN(CC)CC1CCCCN1CC(=O)N1c2ccc(Br)cc2C(=O)Nc2cccnc21` (centres undefined), the TGI in test [1], in test [2], in [3], in [4], in [5] and in test [6] was greater than 100 µM each time. Also, the TGI in [7], in test [9], in [10], in [11], in test [12] and in test [13] was greater than 100 µM each time.
Take `COc1cccc(NC(=O)c2c(SC)n[nH]c2N)c1`: the TGI in test [1], in test [3], in [4], in [5], in test [6] and in test [7] was greater than 100 µM in each case. Further, the TGI in test [8], in test [9], in test [10], in test [11], in test [12] and in [13] was greater than 100 µM in each case.
Take `CCCCCCCCCCCCCC/C(=C/OCC[N+](C)(C)C)OC(C)=O` (tested in a mixture with another compound): the TGI amounted to 4.92 µM in test [1]; 10 µM in [4]; 5.08 µM in test [5]; 5.34 µM in test [6]; 3.27 µM in test [7]; 5.85 µM in test [8]. The TGI in [9] turned out to be 1.82 µM; in test [11], 2.71 µM; in [12], 7.12 µM; in test [13], 13.3 µM.
Consider `Clc1ccc(OCc2nnc(CCCCCCCCc3nnc(COc4ccc(Cl)cc4)o3)o2)cc1`, for which the TGI in test [1], in test [3], in [4], in test [5], in test [6] and in [8] was greater than 100 µM in each case. In addition, the TGI in test [9], in test [10], in [11], in [12] and in test [13] was greater than 100 µM throughout.
Take `COc1cc(CSc2ccc(O)cc2)cc(O)c1O`: the TGI is 53.4 µM in test [2]; greater than 100 µM in [3]; greater than 100 µM in test [4]; 52.6 µM in [5]; 51.6 µM in [6]; greater than 100 µM in test [7]. Besides, the TGI in test [8] was 63.6 µM; in [9], 46.8 µM; in [10], 91.9 µM; in test [11], greater than 100 µM; in [12], 43.7 µM; in test [13], greater than 100 µM.
Regarding `O=C1CC(CC(O)C(O)CO)CC(=O)N1` (centres undefined), the TGI in test [1], in test [2], in test [3], in [4], in test [6] and in test [7] was greater than 100 µM in each case. The TGI in test [8], in [9], in [10], in [11], in test [12] and in test [13] was greater than 100 µM throughout.
Regarding `COC(=O)[C@@H]1C[C@H]2[C@H](c3ccccc3Br)[C@@H](OC(C)=O)[C@@H](OCc3ccccc3)ON2O1`, the TGI in test [1], in test [2], in [3], in test [4], in [5] and in [6] was greater than 100 µM throughout. Further, the TGI in [8], in test [9], in [10], in test [11], in test [12] and in test [13] was greater than 100 µM each time.
Regarding `O=C(C1=CCC2(CC1)OCCO2)N(Cc1ccccc1)c1ccccc1I`, the TGI in test [1] was 30.1 µM; in test [2] it was 59.7 µM; in test [3], greater than 100 µM; in test [4] it was 96.4 µM; in [5] it was 36.5 µM; in [6] it was 51.8 µM. In addition, the TGI in [7] was greater than 100 µM; in [9], 36 µM; in [10], 29.5 µM; in test [11], 48.1 µM; in test [12], 33.5 µM; in [13] it was greater than 100 µM.
`COc1ccc(OC)c2c1C(=O)C(Cl)=C(Cl)C2=O`: the TGI is 14.1 µM in test [1]; 8.09 µM in test [2]; 8.87 µM in test [3]; 4.19 µM in test [4]; 3.21 µM in [5]; 38.6 µM in [6]. The TGI is greater than 100 µM in test [7]; 15.5 µM in [9]; 33.8 µM in [10]; 38.9 µM in [11]; 6.46 µM in [12]; greater than 100 µM in test [13].
On to `O=[N+]([O-])/C(Cl)=C(\Sc1ccccc1)C(Cl)=C(Cl)Cl`, for which the TGI turned out to be 1.72 µM in test [1]; 4.88 µM in [2]; 1.58 µM in test [3]; 0.761 µM in test [4]; 0.608 µM in test [5]; 8.92 µM in test [6]. In addition, the TGI in [7] was determined as 0.515 µM; in [9] it was 1.8 µM; in test [10], 3.21 µM; in test [11] it was 3.69 µM; in [12] it was 0.345 µM.
Regarding `COc1ccc(-n2c(C)nc3ccc(N=Cc4ccccc4)cc3c2=O)cc1`, the TGI in test [1], in test [2], in test [3], in test [4], in test [5] and in test [6] was greater than 100 µM each time. In addition, the TGI in test [7], in [8], in test [9], in test [10], in [11] and in test [13] was greater than 100 µM each time.
As for `O=c1oc2ccccc2c(O)c1C(c1ccc([N+](=O)[O-])cc1)c1c(O)c2ccccc2oc1=O`, the TGI in test [1], in test [2], in test [3], in test [4], in test [5] and in [7] was greater than 100 µM each time. The TGI in [8], in test [9], in test [10] and in test [11] was greater than 100 µM in each case.
Take `Nc1nonc1-c1noc(-c2nonc2N)[n+]1[O-]`: the TGI in test [1] is greater than 100 µM; in [3], greater than 100 µM; in test [4], greater than 100 µM; in [6], greater than 100 µM; in [8] it was greater than 100 µM; in [9] it was 33.6 µM. Moreover, the TGI in test [10], in test [11], in test [12] and in [13] was greater than 100 µM in each case.
For `c1csc(-c2cc(-c3ccsc3)c(-c3cccs3)s2)c1`, the TGI was greater than 100 µM in test [1]; greater than 100 µM in test [2]; greater than 100 µM in test [3]; greater than 100 µM in test [4]; 82.5 µM in test [5]; greater than 100 µM in [6]. The TGI in [8], in test [9], in test [10], in test [11], in test [12] and in test [13] was greater than 100 µM throughout.
For `CCOC(=O)C1C(=O)CC(C)(O)C(C(=O)OCC)C1c1ccc(O)c(OC)c1` (centres undefined), the TGI in test [1], in test [2], in test [3], in [4], in test [5] and in test [6] was greater than 100 µM throughout. The TGI in test [7], in test [8], in test [9], in test [10], in [11] and in test [13] was greater than 100 µM in each case.
On to `Cc1ccc2c(c1)C(=O)C1(C2)Cc2ccc(C)cc2C1=O`, for which the TGI in [1], in test [2], in test [3], in test [4], in [6] and in [7] was greater than 100 µM in each case. Also, the TGI in [9], in test [11], in [12] and in [13] was greater than 100 µM each time.
As for `COc1cccc2c1[C@H](OC)[C@]13O[C@@]1(C2=O)[C@H](O)[C@H](C)[C@@](O)(C(=O)[C@@H]1O[C@H]1C)[C@@H]3O`, the TGI in [1] was 0.386 µM; in [3] it was greater than 47.6 µM; in [4], 0.768 µM; in test [5], 0.415 µM; in test [6] it was 0.558 µM; in test [8], 1.28 µM. For the same compound, the TGI was 1.11 µM in test [9]; greater than 36.5 µM in test [10]; 3.1 µM in test [11]; 0.395 µM in [12]; greater than 100 µM in [13]. Also, the GI50 in [9] was 0.251 µM; in test [12] it was 0.197 µM.
